Assay results: patent US12171255B2, “Shisha, heat-not-burn, or combustion casing, product, and method of making the same” (Tobacco Technology, Inc., priority 2020, dated 2024)

Test system: microbial growth
Experiment: Inhibition of microbial growth (preservative effect)

Structure (SMILES) | effectiveness at inhibiting microbial growth compared with propylene glycol | amount that can inhibit microbial growth and act as a preservative (in casing)
O=C(O)CC(O)(CC(=O)O)C(=O)O [citric acid] | more effective at inhibiting microbial growth than propylene glycol | –
CC(O)CO (centres unmarked) [propylene glycol] | – | above 15 % by weight
